Laboratory results as given in PubChem BioAssay AID276 (DTP/NCI, 2004).
Where “and” joins values, the source holds several entries; their conditions need not be identical. Identical values can stand only once. Toxic doses and inconclusive results are not listed. Rule for the calls: active = survival T/C of 150% or more; inactive = T/C below 125% in these data.

Tested on: B6C3F1 mice, Lewis lung carcinoma iv, survival T/C
Test: NCI In Vivo Anticancer Drug Screen. Data for tumor model Lewis Lung Carcinoma (intravenous) in B6C3F1 mice
Details: endpoint: median survival time, schedule: Q01DX009 (ip), higher = longer survival
Method: The antitumor activity of compounds was measured in mice bearing transplantable tumors. Survival or tumor size were measured and the results are expressed as the measurement made in the treated group (T) divided by the measurement made in the vehicle treated control group (C). The tumor model used in this assay is Lewis Lung Carcinoma (intravenous) in B6C3F1 mice

[1] = dose: 25.0 mg/kg/injection, vehicle: saline with Tween-80
[2] = dose: 50.0 mg/kg/injection, vehicle: saline with Tween-80
[3] = dose: 100.0 mg/kg/injection, vehicle: saline with Tween-80
[4] = dose: 200.0 mg/kg/injection, vehicle: saline with Tween-80
[5] = dose: 400.0 mg/kg/injection, vehicle: saline with Tween-80
[6] = dose: 12.5 mg/kg/injection, vehicle: saline with Tween-80
[7] = dose: 25.0 mg/kg/injection, vehicle: Klucel (hydroxypropylcellulose) (HPC)
[8] = dose: 50.0 mg/kg/injection, vehicle: Klucel (hydroxypropylcellulose) (HPC)
[9] = dose: 100.0 mg/kg/injection, vehicle: Klucel (hydroxypropylcellulose) (HPC)
[10] = dose: 200.0 mg/kg/injection, vehicle: Klucel (hydroxypropylcellulose) (HPC)
[11] = dose: 25.0 mg/kg/injection, vehicle: saline
[12] = dose: 50.0 mg/kg/injection, vehicle: saline
[13] = dose: 100.0 mg/kg/injection, vehicle: saline
[14] = dose: 200.0 mg/kg/injection, vehicle: saline
[15] = dose: 400.0 mg/kg/injection, vehicle: saline
[16] = dose: 800.0 mg/kg/injection, vehicle: saline

Measured: T/C

C[C@]12CC[C@H](O)CC1=CC[C@@H]1[C@@H]2CC[C@]2(C)C(=O)CC[C@@H]12
inactive: [1] 105 % of control | [2] 100 % of control | [3] 101 % of control | [4] 94 % of control | [5] 99 % of control

CCO/C=C1\SC(=S)N(c2ccccc2C)C1=O
inactive: [6] 104 % of control | [1] 110 % of control | [2] 98 % of control | [3] 116 % of control | [4] 108 % of control | [5] 89 % of control

C[C@]12C=CC(=O)C=C1CC[C@@H]1[C@@H]2[C@@H](O)C[C@@]2(C)[C@H]1CC[C@]2(O)C(=O)CO
inactive: [7] 107 % of control | [8] 118 % of control | [9] 107 % of control | [10] 118 % of control | dose: 400.0 mg/kg/injection, vehicle: Klucel (hydroxypropylcellulose) (HPC) 107 % of control

CC(=O)Nc1cscc1NC(C)=O
inactive: [1] 103 % of control | [2] 101 % of control and 106 % of control | [3] 98 % of control | [4] 94 % of control and 108 % of control | [5] 112 % of control and 88 % of control

Nc1nncs1
inactive: dose: 15.19 mg/kg/injection, vehicle: Klucel (hydroxypropylcellulose) (HPC) 106 % of control | dose: 20.25 mg/kg/injection, vehicle: Klucel (hydroxypropylcellulose) (HPC) 100 % of control | dose: 27.0 mg/kg/injection, vehicle: Klucel (hydroxypropylcellulose) (HPC) 113 % of control | dose: 36.0 mg/kg/injection, vehicle: Klucel (hydroxypropylcellulose) (HPC) 103 % of control and 116 % of control | dose: 48.0 mg/kg/injection, vehicle: Klucel (hydroxypropylcellulose) (HPC) 103 % of control

c1csc(C[N+]23CN4CN(CN(C4)C2)C3)c1
inactive: dose: 12.0 mg/kg/injection, vehicle: saline 100 % of control | [11] 101 % of control | [12] 96 % of control | [13] 96 % of control | [14] 110 % of control

Nc1n[nH]c(N)n1
inactive: [13] 109 % of control | [14] 109 % of control | [15] 106 % of control | [16] 115 % of control

NC(=S)c1ncn(C2OC(CO)C(O)C2O)c1N (stereo not drawn)
inactive: dose: 12.5 mg/kg/injection, vehicle: suspension in saline 100 % of control | dose: 25.0 mg/kg/injection, vehicle: suspension in saline 99 % of control | dose: 50.0 mg/kg/injection, vehicle: suspension in saline 106 % of control | dose: 100.0 mg/kg/injection, vehicle: suspension in saline 110 % of control | dose: 200.0 mg/kg/injection, vehicle: suspension in saline 116 % of control

Cc1c(-c2ccc(C3CCCCC3)cc2)nc2ccc(F)cc2c1C(=O)O
inactive: [7] 96 % of control | [8] 110 % of control | [9] 118 % of control | [10] 112 % of control

C=COC(=O)C(Cc1ccccc1)NC(=O)OCc1ccccc1 (stereo not drawn)
inactive: [1] 103 % of control | [2] 112 % of control | [3] 98 % of control | [4] 105 % of control | [5] 94 % of control

O=C(Nc1cc(Cl)ccc1C(=O)O)c1cccc(C[n+]2ccccc2)c1
inactive: [6] 107 % of control | [1] 102 % of control | [2] 92 % of control | [3] 95 % of control | [4] 100 % of control and 102 % of control

[Cl][Pt+2][Cl].[NH-]CC1(C[NH-])CCC1
inactive: dose: 1.56 mg/kg/injection, vehicle: suspension in saline 96 % of control | dose: 3.12 mg/kg/injection, vehicle: suspension in saline 105 % of control

COc1ccc(CC2C(=O)NC(C)C(=O)N(C)C3Cc4ccc(cc4)Oc4cc(ccc4O)CC(C(=O)NC(C)C(=O)NC(C)C(=O)N2C)N(C)C3=O)cc1 (stereo not drawn)
inactive: dose: 0.25 mg/kg/injection, vehicle: saline with Tween-80 110 % of control | dose: 0.5 mg/kg/injection, vehicle: saline with Tween-80 107 % of control | dose: 1.0 mg/kg/injection, vehicle: saline with Tween-80 106 % of control | dose: 2.0 mg/kg/injection, vehicle: saline with Tween-80 106 % of control

O=C1CCC(=O)N1CO
inactive: [11] 94 % of control | [12] 98 % of control | [13] 94 % of control | [14] 103 % of control | [15] 106 % of control

O=C(O)C1CC(O)CN1 (stereo not drawn)
inactive: [12] 98 % of control | [13] 91 % of control | [14] 91 % of control | [15] 114 % of control | [16] 109 % of control

O=C(Nc1nncs1)c1cccs1
inactive: [6] 111 % of control | [1] 93 % of control | [2] 96 % of control | [3] 103 % of control

O=S(=O)(N=N/C=C1\C=CC=CN1O)c1cccs1
inactive: [6] 111 % of control | [1] 103 % of control | [2] 103 % of control | [3] 107 % of control
